Drawing on patent US9896445B2, “Heterocyclic inhibitors of ERK1 and ERK2 and their use in the treatment of cancer” (Asana Biosciences, LLC, priority 2015, dated 2018), this text covers IC50 for 20 molecules.

For orientation: IC50 means the concentration needed to halve the response being measured.

Structures are written as SMILES. Where only a bound is given, the exact number is not on record here.

The target in experiment [1] is T1, ERK1 (Homo sapiens, UniProt P27361).
T1 construct: purchased Jubilant Biosys
Description: ERK1 HTRF (biochemical) assay. Particulars: HTRF. Here is the method: ERK1 and ERK2 HTRF (Biochemical) Assays
These assays employed a homogeneous time resolved fluorescence (HTRF) technique. […] The plate was incubated at room temperature for 60 min with shaking. […] The IC50 values (half maximal inhibitory concentration values) were subsequently determined using a sigmoidal dose-response curve (variable slope) in GraphPad Prism® 5 software.

In experiment [2] the target is T2, ERK2 (Homo sapiens, UniProt P28482).
T2 construct: purchased Jubilant Biosys
Description: ERK2 HTRF (biochemical) assay. Particulars: HTRF. The gist of the method:
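Readout was time-resolved FRET between europium anti-phospho-MBP and streptavidin-APC after a 60-min room-temperature kinase step. That step used ERK2 (25 nM in enzyme mix), biotinylated MBP peptide (1 uM) and ATP (24 uM) from the substrate mix, in pH 7.5 Tris buffer.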
For orientation: Time-resolved FRET reads energy transfer from a long-lived donor to a nearby acceptor.

T1 sequence (P27361 whole entry): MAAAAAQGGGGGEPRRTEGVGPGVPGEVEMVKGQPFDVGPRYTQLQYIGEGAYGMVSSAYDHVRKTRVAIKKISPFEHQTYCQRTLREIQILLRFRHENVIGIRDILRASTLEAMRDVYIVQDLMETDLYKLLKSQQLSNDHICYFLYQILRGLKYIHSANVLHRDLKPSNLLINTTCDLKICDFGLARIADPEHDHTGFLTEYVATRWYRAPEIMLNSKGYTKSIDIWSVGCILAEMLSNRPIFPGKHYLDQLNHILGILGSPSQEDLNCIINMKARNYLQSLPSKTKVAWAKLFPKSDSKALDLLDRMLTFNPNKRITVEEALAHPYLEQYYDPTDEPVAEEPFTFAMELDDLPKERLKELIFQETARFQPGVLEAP
T2 sequence (P28482 whole entry): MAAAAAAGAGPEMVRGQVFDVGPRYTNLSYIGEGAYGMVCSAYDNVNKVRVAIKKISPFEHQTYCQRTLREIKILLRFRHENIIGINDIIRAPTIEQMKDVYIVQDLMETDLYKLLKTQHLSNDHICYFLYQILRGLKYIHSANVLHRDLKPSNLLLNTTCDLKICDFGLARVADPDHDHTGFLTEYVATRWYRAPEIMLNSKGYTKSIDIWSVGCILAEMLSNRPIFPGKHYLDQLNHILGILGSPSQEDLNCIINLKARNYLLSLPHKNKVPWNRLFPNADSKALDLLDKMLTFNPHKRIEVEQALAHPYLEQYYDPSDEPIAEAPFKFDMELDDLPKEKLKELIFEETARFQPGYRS

In the case of `Cc1cnc(Nc2ccc3c(c2)CCO3)nc1-n1ccc(C(=O)NC(CO)c2ccccc2)c1` (stereo not shown) [Compound 138, 1-(2-((2,3-dihydro-benzofuran-5-yl)amino)-5-methylpyrimidin-4-yl)-N-(2-hydroxy-1-phenylethyl)-1H-pyrrole-3-carboxamide], the IC50 was below 50 nM in experiment [1] and at most 50 nM in experiment [2].

With `Cc1cnc(Nc2ccc3c(c2)OCCO3)nc1-n1ccc(C(=O)NC(CO)c2cccc(Cl)c2)c1` (stereo not shown) [Compound 139, N-(1-(3-chloro-phenyl)-2-hydroxyethyl)-1-(2-((2,3-dihydro-benzo[b][1,4]dioxin-6-yl)amino)-5-methylpyrimidin-4-yl)-1H-pyrrole-3-carboxamide], the IC50 was below 50 nM in experiment [1] and at most 50 nM in experiment [2].

On to `Cc1cnc(Nc2ccc3[nH]ncc3c2)nc1-n1ccc(C(=O)NC(CO)c2ccccc2)c1` (stereo not shown) [Compound 140, 1-(2-((1H-indazol-5-yl)amino)-5-methylpyrimidin-4-yl)-N-(2-hydroxy-1-phenylethyl)-1H-pyrrole-3-carboxamide], for which the IC50 in experiment [1] was below 50 nM; in experiment [2], at most 50 nM.

Turning to `Cc1cnc(NC2CCCOC2)nc1-n1ccc(C(=O)NC(CO)c2ccccc2)c1` (stereo not shown) [Compound 141, N-(2-hydroxy-1-phenylethyl)-1-(5-methyl-2-((tetrahydro-2H-pyran-3-yl)amino)-pyrimidin-4-yl)-1H-pyrrole-3-carboxamide], the IC50 in experiment [1] is below 50 nM; in experiment [2], at most 50 nM.

For the molecule `COc1cc(F)ccc1Nc1ncc(C)c(-n2ccc(C(=O)NC(CO)c3cccc(Cl)c3)c2)n1` (stereo not shown) [Compound 142, N-(1-(3-chloro-phenyl)-2-hydroxy-ethyl)-1-(2-((4-fluoro-2-methoxy-phenyl)amino)-5-methylpyrimidin-4-yl)-1H-pyrrole-3-carboxamide], the IC50 in experiment [1] is below 50 nM; in experiment [2], at most 50 nM.

As to `COc1c(F)cccc1Nc1ncc(C)c(-n2ccc(C(=O)NC(CO)c3cccc(Cl)c3)c2)n1` (stereo not shown) [Compound 143], the values for the IC50 in experiment [1] and in experiment [2] were below 50 nM and at most 50 nM, respectively.

As to `O=C(NC(CO)c1cccc(Cl)c1)c1ccn(-c2ccnc(NC3CCNC3)c2)c1` (stereo not shown) [Compound 145, N-(1-(3-chloro-phenyl)-2-hydroxy-ethyl)-1-(2-(pyrrolidin-3-ylamino)pyridin-4-yl)-1H-pyrrole-3-carboxamide], the half-inhibitory concentration (IC50) in experiment [1] was above 2500 nM; in experiment [2] it was 500 to 2500 nM.

With `CC[C@@H](CO)Nc1ncc(C)c(-n2ccc(C(=O)NC(CO)c3cccc(Cl)c3)c2)n1` (stereo partly drawn) [Compound 146, N-(1-(3-chloro-phenyl)-2-hydroxy-ethyl)-1-(2-(((S)-1-hydroxybutan-2-yl)amino)-5-methylpyrimidin-4-yl)-1H-pyrrole-3-carboxamide], the IC50 is below 50 nM in experiment [1] and at most 50 nM in experiment [2].

Consider `Cc1cnc(NC(CO)CO)nc1-n1ccc(C(=O)NC(CO)c2ccccc2)c1` (stereo not shown) [Compound 147, 1-(2-((1,3-dihydroxypropan-2-yl)amino)-5-methylpyrimidin-4-yl)-N-(2-hydroxy-1-phenylethyl)-1H-pyrrole-3-carboxamide], for which the half-maximal inhibitory concentration (IC50) in experiment [1] was 50 to 100 nM; in experiment [2] it was at most 50 nM.

In the case of `COc1ccc(Nc2ncc(C)c(-n3ccc(C(=O)NC(CO)c4ccccc4)c3)n2)cc1OCCN1CCN(C)CC1` (stereo not shown) [Compound 148, N-(2-hydroxy-1-phenylethyl)-1-(2-((4-methoxy-3-(2-(4-methylpiperazin-1-yl)ethoxy)-phenyl)amino)-5-methylpyrimidin-4-yl)-1H-pyrrole-3-carboxamide], the IC50 was below 50 nM in experiment [1] and at most 50 nM in experiment [2].

For the molecule `Cc1cnc(Nc2ccc(F)cc2Cl)nc1-n1ccc(C(=O)NC(COC(=O)C(N)CC(C)C)c2ccccc2)c1` (stereo not shown) [Compound 150, 2-(1-(2-((2-chloro-4-fluorophenyl)-amino)-5-methyl-pyrimidin-4-yl)-1H-pyrrole-3-carboxamido)-2-phenylethyl 2-amino-4-methyl-pentanoate], the half-maximal inhibitory concentration (IC50) in experiment [1] is 100 to 500 nM; in experiment [2] it was at most 50 nM.

For `Cc1cnc(NC2CCOC2)nc1-n1ccc(C(=O)N[C@H](CO)c2cccc(Cl)c2)c1` (stereo partly drawn) [Compound 151, N-((S)-1-(3-chlorophenyl)-2-hydroxyethyl)-1-(5-methyl-2-((tetrahydrofuran-3-yl)amino)pyrimidin-4-yl)-1H-pyrrole-3-carboxamide], the 50% inhibitory concentration (IC50) in experiment [1] is below 50 nM; in experiment [2], at most 50 nM.

Consider `Cc1cnc(NC2CCCOC2)nc1-n1ccc(C(=O)N[C@H](CO)c2cccc(Cl)c2)c1` (stereo partly drawn) [Compound 152, N-((S)-1-(3-chlorophenyl)-2-hydroxyethyl)-1-(5-methyl-2-((tetrahydro-2H-pyran-3-yl)amino)pyrimidin-4-yl)-1H-pyrrole-3-carboxamide], for which the IC50 in experiment [1] is below 50 nM; in experiment [2], at most 50 nM.

As to `Cc1cnc(Nc2ccc(F)cc2)nc1-n1cc(C(=O)NC(CO)c2ccccc2)nc1C` (stereo not shown) [Compound 153, 1-(2-((4-Fluorophenyl)amino)-5-methylpyrimidin-4-yl)-N-(2-hydroxy-1-phenylethyl)-2-methyl-1H-imidazole-4-carboxamide], the IC50 in experiment [1] and in experiment [2] was 100 to 500 nM each time.

Regarding `COc1cc(Nc2ncc(C)c(-n3ccc(C(=O)NC(CO)c4ccccc4)c3)n2)ccc1F` (stereo not shown) [Compound 154, 1-(2-((4-fluoro-3-methoxyphenyl)amino)-5-methyl-pyrimidin-4-yl)-N-(2-hydroxy-1-phenylethyl)-1H-pyrrole-3-carboxamide], the results for the concentration for half-maximal inhibition (IC50) in experiment [1] and in experiment [2] were below 50 nM and at most 50 nM, respectively.

Turning to `Cc1cnc(Nc2ccc(F)cc2)nc1-n1cnc(C(=O)NC(CO)c2cccc(Cl)c2)c1` (stereo not shown) [Compound 155, N-(1-(3-chlorophenyl)-2-hydroxyethyl)-1-(2-((4-fluoro-phenyl)amino)-5-methylpyrimidin-4-yl)-1H-imidazole-4-carboxamide], the 50% inhibitory concentration (IC50) is below 50 nM in experiment [1] and at most 50 nM in experiment [2].

Turning to `Cc1cnc(NC2CCCOC2)nc1-n1ccc(C(=O)N[C@H](CO)c2cccc(Cl)c2)c1` (stereo partly drawn) [Compound 156, N-((S)-1-(3-chloro-phenyl)-2-hydroxy-ethyl)-1-(5-methyl-2-((tetrahydro-2H-pyran-3-yl)amino)-pyrimidin-4-yl)-1H-pyrrole-3-carboxamide], the IC50 was below 50 nM in experiment [1] and at most 50 nM in experiment [2].

In the case of `Cc1cnc(NC2CCOC2)nc1-n1ccc(C(=O)N[C@H](CO)c2ccc(F)c(Cl)c2)c1` (stereo partly drawn) [Compound 157, N-((S)-1-(3-chloro-4-fluorophenyl)-2-hydroxyethyl)-1-(5-methyl-2-((tetrahydrofuran-3-yl)amino)pyrimidin-4-yl)-1H-pyrrole-3-carboxamide], the IC50 is below 50 nM in experiment [1] and at most 50 nM in experiment [2].

Turning to `CC(=O)NCC(NC(=O)c1ccn(-c2nc(Nc3ccc4c(c3)OC(F)(F)O4)ncc2C)c1)c1cccc(Cl)c1` (stereo not shown) [Compound 158, N-(2-acetamido-1-(3-chlorophenyl)-ethyl)-1-(2-((2,2-difluorobenzo[d] [1,3]dioxol-5-yl)-amino)-5-methyl-pyrimidin-4-yl)-1H-pyrrole-3-carboxamide], the half-inhibitory concentration (IC50) in experiment [1] fell in the range of 100 to 500 nM; in experiment [2], 50 to 100 nM.

Take `Cc1cnc(Nc2cccc3c2OC(F)(F)O3)nc1-n1ccc(C(=O)NC(CO)c2cccc(Cl)c2)c1` (stereo not shown) [Compound 160, N-(1-(3-chloro-phenyl)-2-hydroxy-ethyl)-1-(2-((2,2-difluoro-benzo[d][1,3]dioxol-4-yl)amino)-5-methylpyrimidin-4-yl)-1H-pyrrole-3-carboxamide]: the half-maximal inhibitory concentration (IC50) was below 50 nM in experiment [1] and at most 50 nM in experiment [2].
